Measured values taken from patent US20240343704A1, “HALO-SUBSTITUTED AMINO PYRIDINE COMPOUNDS AS INHIBITORS OF THE HAEMATOPOIETIC PROGENITOR KINASE 1 (HPK1)” (priority 2021, published 2024).
Counter-ions that a name gives are not always drawn.

How the values were obtained:
Lck (h) = Lck (h) (Homo sapiens, UniProt P06239); assay: Lck Human  Kinase Enzymatic Radiometric Assay; format: biochemical; conditions: read-out: Lck IC50 nM Range*
How it was run: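 Substrate 33P-incorporation measured by scintillation counting after spotting on P30 filtermat and phosphoric acid washes. Human Lck reacted 40 min at RT in 50 mM Tris pH 7.5 with 10 mM MgAcetate, [gamma-33P]-ATP, 250 uM Cdc2 peptide, 0.1 mM EGTA and 0.1 mM Na3VO4.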

[1] = biological target: T1, Recombinant (1-346) HPK1 (h) (Homo sapiens, UniProt Q92918); assay: HPK1 Human STE Kinase Enzymatic Radiometric Assay; format: biochemical; conditions: read-out: HPK1 IC50 nM Range*
T1 construct: Recombinant (1-346) HPK1 (h) is incubated with 8 mM MOPS pH 7.0
T1 sequence (Q92918 1-346): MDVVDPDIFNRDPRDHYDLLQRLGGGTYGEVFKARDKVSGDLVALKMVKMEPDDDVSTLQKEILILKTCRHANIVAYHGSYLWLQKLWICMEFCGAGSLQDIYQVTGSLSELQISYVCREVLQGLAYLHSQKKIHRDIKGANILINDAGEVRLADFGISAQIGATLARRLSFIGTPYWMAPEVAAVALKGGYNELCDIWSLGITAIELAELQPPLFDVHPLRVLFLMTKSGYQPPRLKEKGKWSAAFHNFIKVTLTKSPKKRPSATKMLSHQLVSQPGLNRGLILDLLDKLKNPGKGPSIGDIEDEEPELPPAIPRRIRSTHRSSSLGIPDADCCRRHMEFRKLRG
Description: A stock solution of 10 mM of test compound is prepared in DMSO. The compound plate was prepared by 3-fold and 9-point serial dilutions. […] The reaction is initiated by The addition of the Mg/ATP mix. After incubation for 40 minutes at RT, the reaction is stopped by the addition of phosphoric acid to a concentration of 0.5%.

Chain of Lck (h) (P06239 whole entry): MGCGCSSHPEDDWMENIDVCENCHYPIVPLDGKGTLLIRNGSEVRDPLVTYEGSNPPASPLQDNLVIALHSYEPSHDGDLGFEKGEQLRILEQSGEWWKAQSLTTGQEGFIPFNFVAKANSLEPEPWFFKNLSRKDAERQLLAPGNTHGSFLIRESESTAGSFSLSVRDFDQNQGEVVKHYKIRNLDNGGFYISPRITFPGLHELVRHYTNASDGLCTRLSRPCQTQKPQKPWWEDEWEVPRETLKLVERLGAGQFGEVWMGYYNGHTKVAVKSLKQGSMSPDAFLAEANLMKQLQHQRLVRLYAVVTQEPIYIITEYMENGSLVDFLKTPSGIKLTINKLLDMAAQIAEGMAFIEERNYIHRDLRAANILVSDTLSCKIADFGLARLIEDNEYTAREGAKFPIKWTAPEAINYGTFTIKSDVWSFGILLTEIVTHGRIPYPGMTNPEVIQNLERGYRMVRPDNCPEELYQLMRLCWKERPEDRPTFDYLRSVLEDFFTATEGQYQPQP

| SMILES | IC50 (Lck (h)) [nM] | IC50 [1] [nM] |
| --- | --- | --- |
| CN(C)CC1Cc2cc(-c3cc(-c4ccc(Cl)cc4)c(F)nc3N)ccc2C(=O)N1 (stereo not drawn) [I-312, 6-(2-amino-5-(4-chlorophenyl)-6-fluoropyridin-3-yl)-3-((dimethylamino)methyl)-3,4-dihydroisoquinolin-1(2H)-one] | > 1000 | 101 to 1000 |
| Cc1cc(-c2cc(-c3cc4c(cc3F)C(=O)NCC4)c(N)nc2F)ccn1 [I-313, 6-(6-amino-2-fluoro-2′-methyl-[3,4′-bipyridin]-5-yl)-7-fluoro-3,4-dihydroisoquinolin-1(2H)-one] | > 1000 | 11 to 100 |
| Nc1nc(F)c(-c2ccnc(OCC3CC3)c2)cc1-c1cc2c(cc1F)C(=O)NCC2 [I-314, 6-(6-amino-2′-(cyclopropylmethoxy)-2-fluoro-[3,4′-bipyridin]-5-yl)-7-fluoro-3,4-dihydroisoquinolin-1(2H)-one] | > 1000 | 101 to 1000 |
| Nc1nc(F)c(-c2cccc(OCC3CC3)c2)cc1-c1cc2c(cc1F)C(=O)NCC2 [I-315, 6-(2-amino-5-(3-(cyclopropylmethoxy)phenyl)-6-fluoropyridin-3-yl)-7-fluoro-3,4-dihydroisoquinolin-1(2H)-one] | > 1000 | 101 to 1000 |
| Nc1nc(F)c(-c2ccc(OCC3CC3)cc2)cc1-c1cc2c(cc1F)C(=O)NCC2 [I-316, 6-(2-amino-5-(4-(cyclopropylmethoxy)phenyl)-6-fluoropyridin-3-yl)-7-fluoro-3,4-dihydroisoquinolin-1(2H)-one] | > 1000 | 11 to 100 |
| Nc1nc(F)c(-c2ccc(OC3CN(C(=O)CC4CC4)C3)cc2)cc1-c1ccc2c(c1)CCNC2=O [I-317, 6-(2-amino-5-(4-((1-(2-cyclopropylacetyl)azetidin-3-yl)oxy)phenyl)-6-fluoropyridin-3-yl)-3,4-dihydroisoquinolin-1(2H)-one] | > 1000 | 0.1 to 10 |
| Nc1nc(F)c(-c2ccc(OC3CN(C4COC4)C3)cc2)cc1-c1ccc2c(c1)CCNC2=O [I-318, 6-(2-amino-6-fluoro-5-(4-((1-(oxetan-3-yl)azetidin-3-yl)oxy)phenyl)pyridin-3-yl)-3,4-dihydroisoquinolin-1(2H)-one] | > 1000 | 11 to 100 |
| C[C@@H]1CN(c2ccc(-c3cc(-c4ccc5c(c4)CCNC5=O)c(N)nc3F)cc2)C[C@H](C)N1 [I-319, 6-(2-amino-5-(4-((3R,5S)-3,5-dimethylpiperazin-1-yl)phenyl)-6-fluoropyridin-3-yl)-3,4-dihydroisoquinolin-1(2H)-one] | > 1000 | 0.1 to 10 |
| Nc1nc(F)c(-c2ccc(OC3CN(CC4CC4)C3)cc2)cc1-c1ccc2c(c1)CCNC2=O [I-321, 6-(2-amino-5-(4-((1-(cyclopropylmethyl)azetidin-3-yl)oxy)phenyl)-6-fluoropyridin-3-yl)-3,4-dihydroisoquinolin-1(2H)-one] | > 1000 | 0.1 to 10 |
| Nc1nc(F)c(-c2ccc(OC3CCN(CC4CC4)CC3)cc2)cc1-c1ccc2c(c1)CCNC2=O [I-322, 6-(2-amino-5-(4-((1-(cyclopropylmethyl)piperidin-4-yl)oxy)phenyl)-6-fluoropyridin-3-yl)-3,4-dihydroisoquinolin-1(2H)-one] | > 1000 | 0.1 to 10 |
| Nc1nc(F)c(-c2ccc(OC3CCN(C(=O)CC4CC4)CC3)cc2)cc1-c1cc2c(cc1F)C(=O)NCC2 [I-323, 6-(2-amino-5-(4-((1-(2-cyclopropylacetyl)piperidin-4-yl)oxy)phenyl)-6-fluoropyridin-3-yl)-7-fluoro-3,4-dihydroisoquinolin-1(2H)-one] | > 1000 | 0.1 to 10 |
| Nc1nc(F)c(-c2ccc(OC3CCN(CC4CC4)CC3)cc2)cc1-c1cc2c(cc1F)C(=O)NCC2 [I-324, 6-(2-amino-5-(4-((1-(cyclopropylmethyl)piperidin-4-yl)oxy)phenyl)-6-fluoropyridin-3-yl)-7-fluoro-3,4-dihydroisoquinolin-1(2H)-one] | > 1000 | 0.1 to 10 |
| Nc1nc(F)c(-c2ccc(OC3CCN(C4COC4)CC3)cc2)cc1-c1cc2c(cc1F)C(=O)NCC2 [I-325, 6-(2-amino-6-fluoro-5-(4-((1-(oxetan-3-yl)piperidin-4-yl)oxy)phenyl)pyridin-3-yl)-7-fluoro-3,4-dihydroisoquinolin-1(2H)-one] | > 1000 | 11 to 100 |
| CC(=O)N1CC(Oc2ccc(-c3cc(-c4ccc5c(c4)CCNC5=O)c(N)nc3F)cc2)C1 [I-326, 6-(5-(4-((1-acetylazetidin-3-yl)oxy)phenyl)-2-amino-6-fluoropyridin-3-yl)-3,4-dihydroisoquinolin-1(2H)-one] | > 1000 | 0.1 to 10 |
| CC(=O)N1CCC(Oc2ccc(-c3cc(-c4cc5c(cc4F)C(=O)NCC5)c(N)nc3F)cc2)CC1 [I-327, 6-(5-(4-((1-acetylpiperidin-4-yl)oxy)phenyl)-2-amino-6-fluoropyridin-3-yl)-7-fluoro-3,4-dihydroisoquinolin-1(2H)-one] | > 1000 | 0.1 to 10 |

Now from value to compound:

| IC50 (Lck (h)) [nM] | IC50 [1] [nM] | SMILES |
| --- | --- | --- |
| > 1000 | 0.1 to 10 | CC(C)N1C[C@H]2C[C@@]2(c2ccc(-c3cc(-c4cc(F)c5c(c4)CCNC5=O)c(N)nc3F)cc2)C1 [I-301, 6-(2-amino-6-fluoro-5-(4-((1R,5S)-3-isopropyl-3-azabicyclo[3.1.0]hexan-1-yl)phenyl)pyridin-3-yl)-8-fluoro-3,4-dihydroisoquinolin-1(2H)-one] |
| 101 to 1000 | 0.1 to 10 | CC(C)N1CCC(c2ccc(-c3cc(-c4cc(F)c5c(c4)CCNC5=O)c(N)nc3F)cc2)CC1 [I-302, 6-(2-amino-6-fluoro-5-(4-(1-isopropylpiperidin-4-yl)phenyl)pyridin-3-yl)-8-fluoro-3,4-dihydroisoquinolin-1(2H)-one] |
| > 1000 | 11 to 100 | COCCN1CCC(Oc2ccc(-c3cc(-c4cc5c(cc4F)C(=O)NCC5)c(N)nc3F)cc2C#N)CC1 [I-303, 5-(6-amino-2-fluoro-5-(7-fluoro-1-oxo-1,2,3,4-tetrahydroisoquinolin-6-yl)pyridin-3-yl)-2-((1-(2-methoxyethyl)piperidin-4-yl)oxy)benzonitrile] |
| > 1000 | 0.1 to 10 | COc1cc(OC2CCN(C(C)=O)CC2)ccc1-c1cc(-c2ccc3c(c2)CCNC3=O)c(N)nc1F [I-304, 6-(5-(4-((1-acetylpiperidin-4-yl)oxy)-2-methoxyphenyl)-2-amino-6-fluoropyridin-3-yl)-3,4-dihydroisoquinolin-1(2H)-one] |
| > 1000 | 0.1 to 10 | COc1cc(-c2cc(-c3ccc4c(c3)CCNC4=O)c(N)nc2F)ccc1OC1CCN(C(C)=O)CC1 [I-305, 6-(5-(4-((1-acetylpiperidin-4-yl)oxy)-3-methoxyphenyl)-2-amino-6-fluoropyridin-3-yl)-3,4-dihydroisoquinolin-1(2H)-one] |
| > 1000 | 0.1 to 10 | CC(=O)N1CCC(Oc2ccc(-c3cc(-c4ccc5c(c4)CCNC5=O)c(N)nc3F)c3c2OCO3)CC1 [I-306, 6-(5-(7-((1-acetylpiperidin-4-yl)oxy)benzo[d][1,3]dioxol-4-yl)-2-amino-6-fluoropyridin-3-yl)-3,4-dihydroisoquinolin-1(2H)-one] |
| > 1000 | 0.1 to 10 | Nc1nc(F)c(-c2ccc(N3CCN(CC4CC4)CC3)cc2)cc1-c1cc(F)c2c(c1)CCNC2=O [I-307, 6-(2-amino-5-(4-(4-(cyclopropylmethyl)piperazin-1-yl)phenyl)-6-fluoropyridin-3-yl)-8-fluoro-3,4-dihydroisoquinolin-1(2H)-one] |
| > 1000 | 0.1 to 10 | Nc1nc(F)c(-c2ccc(C3CCN(CC4CC4)CC3)cc2)cc1-c1cc(F)c2c(c1)CCNC2=O [I-308, 6-(2-amino-5-(4-(1-(cyclopropylmethyl)piperidin-4-yl)phenyl)-6-fluoropyridin-3-yl)-8-fluoro-3,4-dihydroisoquinolin-1(2H)-one] |
| > 1000 | 0.1 to 10 | Nc1nc(F)c(-c2ccc(N3CCOCC3)cc2)cc1-c1cc(F)c2c(c1)CCNC2=O [I-309, 6-(2-amino-6-fluoro-5-(4-morpholinophenyl)pyridin-3-yl)-8-fluoro-3,4-dihydroisoquinolin-1(2H)-one] |
| > 1000 | 11 to 100 | CC(C)N1CCN(c2ccc(-c3cc(-c4ccc5c(c4)CC(CN(C)C)NC5=O)c(N)nc3F)cc2)CC1 (stereo not drawn) [I-310, 6-(2-amino-6-fluoro-5-(4-(4-isopropylpiperazin-1-yl)phenyl)pyridin-3-yl)-3-((dimethylamino)methyl)-3,4-dihydroisoquinolin-1(2H)-one] |
| > 1000 | 11 to 100 | CN(C)CC1Cc2cc(-c3cc(-c4ccc(N5CCOCC5)cc4)c(F)nc3N)ccc2C(=O)N1 (stereo not drawn) [I-311, 6-(2-amino-6-fluoro-5-(4-morpholinophenyl)pyridin-3-yl)-3-((dimethylamino)methyl)-3,4-dihydroisoquinolin-1(2H)-one] |
| 101 to 1000 | 0.1 to 10 | Nc1nc(F)c(-c2ccc([C@]34C[C@H]3CN(CC3CC3)C4)cc2)cc1-c1cc(F)c2c(c1)CCNC2=O [I-320, 6-(2-amino-5-(4-((1S,5R)-3-(cyclopropylmethyl)-3-azabicyclo[3.1.0]hexan-1-yl)phenyl)-6-fluoropyridin-3-yl)-8-fluoro-3,4-dihydroisoquinolin-1(2H)-one formate] |
